# Patent EP0029303B1, “1,2,4-Triazole derivatives, processes for their production and pharmaceutical compositions containing them” (GLAXO GROUP LIMITED, priority 1979, dated 1981)
# Test system: histamine induced gastric acid secretion
# Assay: inhibition of histamine induced gastric acid secretion in the perfused rat stomach preparation
# Format: in vivo
# Details: sodium pentobarbitone anaesthesia
# Excerpt: Certain novel heterocyclic derivatives having a structure different from the compounds referred to above, have now been found which have potent activity as H2-antagonists.
# The results obtained for a representative number of compounds according to the invention are given below: […]
row,Structure (SMILES),ED50
1,"Cn1nc(N)nc1NCCCOc1cccc(CNCc2ccco2)c1 [1 (b), 1-methyl-N^5-[3-[3-[(2-furanylmethyl)aminomethyl]phenoxy]propyl)-1H-1,2,4-triazole-3,5-diamine]",0.095 mg/kg
2,"CCCCCCCCCCCCNCc1cccc(OCCCNc2nc(N)nn2C)c1 [1 (d), 1-methyl-N^5-[3-[3-[(dodecylamino)methyl]phenoxy]-propyl]-1H-1,2 4-triazoie-3,5-diamine]",0.075 mg/kg
3,CCCCNC(=O)CCCCCNCc1cccc(OCCCNc2nc(N)nn2C)c1 [1 (g)],0.25 mg/kg
4,"Cn1nc(N)nc1NCCCOc1cccc(CNCc2ccc[nH]2)c1 [2 (d), 1-methyl-N5-[3-[3-[(1H-pyrrol-2-yl-methyl)amino-methyl]phenoxy]propyl]-1H-1,2,4-triazole-3,5-diamine]",0.014 mg/kg
5,"Cn1nc(N)nc1NCCCOc1cccc(CNCc2ccc(CO)o2)c1 [Example 2 (a), 5-[[3-[3-[(3-Amino-1-methyl-1,2,4-triazol-5-yl)-amino]propoxy]phenylmethyl]aminomethyl]furan-2-methanol]",0.19 mg/kg
6,"Cn1nc(N=Cc2ccncc2)nc1NCCCOc1cccc(CNCc2ccco2)c1 [Example 5, 1-Methyl-N3-(4-pyridylmethylene)-N^5-[3-[3-[(2-furanylmethyt)-aminomethyl)phenoxy]propyl]-1 H-1,2,4-triazole-3,5-diamine]",0.18 mg/kg
7,"CN(Cc1ccco1)Cc1ccc(CSCCNc2nc(CO)nn2C)o1 [Example 6, 5-[[2-[[[5-[[N-Methyl(2-furanylmethyl)amino]methyl]-2-furanyl]methyl]thio]ethyl]amino]-1-methyl-1 H-1,2,4-triazole-3-methanol]",0.077 mg/kg
